What all share (assay): DTP human tumour cell line panel, 48 h
Test [1] relates to T-47D breast.
The test system of test [2] is M14 melanoma.
Test [3] has as its system A549 NSCLC.
The test system of test [4] is MDA-N.
In test [5] the test system is HS 578T breast.
For test [6], the system named is U251 CNS.
Test [7] concerns BT-549 breast.
Test [8] concerns CAKI-1 renal.
The test system of test [9] is EKVX NSCLC.
For test [10], the system named is SK-MEL-5 melanoma.

Several values for one entry are separate records, joined by “and”; a condition that tells them apart may be missing. Identical values can stand only once.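 Following 48 hours of exposure in 96-well plates, responses at five concentrations were used to interpolate endpoints linearly. The concentration for 50% growth inhibition is given as GI50. TGI denotes the concentration required for complete inhibition of growth.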

The term TGI denotes the concentration giving total growth inhibition. Read a low TGI as more potent growth arrest. As a reminder, the GI50 is the concentration at which growth is held to half of that of the control.

`C=C(C)[C@@H]1CC[C@]2(C(=O)O)CC[C@]3(C)[C@H](CC[C@@H]4[C@@]5(C)CC(=O)C(C)(C)[C@@H]5CC[C@]43C)[C@@H]12`: the TGI in [1], in test [2], in [3], in [4], in test [5] and in test [6] was > 25 µM in each case. In addition, the TGI in test [7] was > 25 µM; in [8] it was > 25 µM; in test [9] it was > 25 µM; in test [10], 13.3 µM.

In the case of `CN1C/C(=C\c2cccs2)C2=NC(=S)NC(c3cccs3)C2C1` (stereo not drawn), the TGI is 84.5 µM in test [1]; > 100 µM in [2]; > 100 µM in [3]; > 100 µM in test [4]; > 100 µM in [5]; > 100 µM in test [6]. Also, the TGI in [7], in test [8], in [9] and in test [10] was > 100 µM throughout.

Regarding `O=C(c1ccccc1)c1ccc2c(c1)nc1n2C(c2c(Cl)cccc2Cl)SC1` (stereo not drawn), the TGI in test [1], in [2], in [3], in [4], in [5] and in test [6] was > 100 µM in each case. Also, the TGI in test [7], in [8], in test [9] and in test [10] was > 100 µM throughout.

In the case of `COc1ccc2oc(=N)c(C(=O)Nc3cccc4ccccc34)cc2c1`, the TGI in [1] is > 100 µM; in test [2] it was > 100 µM; in [3] it was > 100 µM; in [4], 18.8 µM; in [5] it was 72.1 µM; in test [6] it was 50.2 µM. The TGI in test [7], in [8], in test [9] and in test [10] was > 100 µM in each case.

In the case of `O=C1c2c(F)c(F)c(F)c(F)c2SC2=NCCN12`, the TGI in [1] was 29 µM; in test [2] it was 14.1 µM; in test [3], 30.1 µM; in test [4], 11.9 µM; in [5] it was 46.4 µM; in test [6], 22.9 µM. Further, the TGI in test [7] came to 28 µM; in [8] it was 6.67 µM; in [9], 41.4 µM; in [10], 28.4 µM.

On to `O=c1[nH]c(=O)n(C2CC(O)C(CO)O2)cc1I` (stereo not drawn), for which the TGI in test [1], in [2], in [3], in test [4], in test [5] and in test [6] was > 100 µM in each case. Besides, the TGI in test [7], in test [8], in test [9] and in test [10] was > 100 µM each time.

Regarding `C1=C\SS/C=C\SS/C=C\SS/C=C\SS/1`, the TGI in test [1], in test [2], in test [3], in test [4], in test [5] and in test [6] was > 100 µM each time. Moreover, the total growth inhibition concentration (TGI) in test [7], in test [8], in test [9] and in test [10] was > 100 µM each time.

`O=C(O)c1ccccc1.[Ag]`: the TGI in [1] was 5.28 µM; in test [2], 36 µM; in test [3], > 58.7 µM; in test [4], 19.2 µM; in test [5], > 71.9 µM; in test [6] it was 35.4 µM. Further, the TGI in test [7] is 64.9 µM; in test [8], 9.89 µM; in [9], 55.4 µM; in test [10] it was 19.5 µM.

As to `C=C(C)C(=O)CC[C@@H](C)[C@H]1[C@@H](OC2OC(CO)C(O)C(O)C2O)C[C@@]2(C)[C@@H]3C[C@H](O)C4C(C)(C)[C@@H](OC5OC(CO)C(O)C(O)C5O)CC[C@@]45C[C@@]35CC[C@]12C` (stereo partly drawn), the TGI in [1] is > 100 µM; in test [2], > 100 µM; in [3], > 100 µM; in [4], 55.6 µM; in [5], > 100 µM; in test [6], > 100 µM. Further, the TGI in [7], in test [8], in test [9] and in test [10] was > 100 µM each time.

With `C=CCC1(O)c2ccccc2C(=O)c2c(O)ccc(O)c21` (stereo not drawn), the TGI was > 59.2 µM in test [1]; 27.5 µM in [2]; > 87.3 µM in test [3]; 5.15 µM in test [4]; 21.9 µM in test [5]; 24.3 µM in [6]. Moreover, the TGI in [7] stood at 36.3 µM; in test [8], 50.7 µM; in test [9], 57 µM; in test [10] it was 23.1 µM.

Regarding `CC(C)(C)OC(=O)CN1CCNCCNCC1`, the TGI in test [1], in [2], in test [3], in test [4], in test [5] and in test [6] was > 100 µM throughout. Moreover, the TGI in test [7], in test [8], in [9] and in test [10] was > 100 µM in each case.

Turning to `CCc1nn(CN2CCN(C)CC2)c(=S)n1/N=C\c1ccc(-c2ccc([N+](=O)[O-])cc2)o1`, the TGI in [1] was 68.5 µM; in [2], > 100 µM; in test [3] it was > 100 µM; in [4] it was > 100 µM; in test [5] it was > 100 µM; in [6], > 100 µM. Moreover, the TGI in test [7], in test [8], in test [9] and in test [10] was > 100 µM in each case.

With `COc1cc(/C=C/C(=O)OCC23CC[C@@]4(C(=O)O)CCC(C)[C@H](C)C4C2=CCC2[C@@]4(C)CC[C@H](O)C(C)(C)C4CC[C@]23C)ccc1O` (stereo partly drawn), the TGI was > 100 µM in test [1]; 49.5 µM in test [2]; 22.6 µM in [3]; 60.7 µM in [4]; 17.1 µM in [5]; 76.1 µM in test [6]. For the same molecule, the TGI in test [7] was 50.6 µM; in test [8], > 100 µM; in test [9], 33.1 µM; in test [10], 32.9 µM.

As to `CN(C)c1nc2sc3c(c2c(=O)o1)CCCC3`, the TGI in [1], in test [2], in test [3], in test [4], in test [5] and in test [6] was > 100 µM each time. The TGI in [7] was 65.5 µM; in [8], > 100 µM; in [9], > 100 µM; in [10], > 100 µM.

In the case of `O=C1c2ccccc2C2CNC1(O)c1ccccc12` (stereo not drawn), the TGI in test [1], in test [2], in test [3], in [4], in test [5] and in [6] was > 100 µM in each case. For the same molecule, the concentration for total growth inhibition (TGI) in test [7], in [8], in test [9] and in test [10] was > 100 µM each time.

As to `O=C1c2ccccc2C(=O)N1n1c(Cc2ccccc2)n[nH]c1=O`, the TGI in test [1], in test [2], in [3], in test [4], in test [5] and in [6] was > 100 µM throughout. The TGI in [7], in [8], in test [9] and in test [10] was > 100 µM throughout.

As for `C1CC2=C(C1)[Se]C(=C1Sc3nsnc3S1)[Se]2`, the TGI in test [1] is > 100 µM; in test [2] it was > 100 µM; in test [3] it was > 100 µM; in test [4], 62 µM; in test [5], > 100 µM; in test [6], > 100 µM. In addition, the TGI in test [7], in test [8], in test [9] and in test [10] was > 100 µM each time.

Take `c1ccc(CNC2CC(NCc3ccccn3)CC(NCc3ccccn3)C2)nc1` (stereo not drawn): the GI50 is 6.64 µM in test [1]; 3.15 µM and 1.39 µM and 2.35 µM in [2]; 2.22 µM in test [4]; 1.95 µM and 4.9 µM and 1.88 µM in test [6]; 18.2 µM in test [7]; 4.6 µM and 16.3 µM and 4.35 µM in test [8]. For the same molecule, the GI50 in test [9] is 3.87 µM and 7.93 µM and 3.88 µM; in test [10], 1.88 µM. For the same molecule, the TGI in [1] is 21.5 µM and 25 µM and 25.6 µM; in test [2], 10.3 µM and 8.32 µM and 5.31 µM; in test [3], 6.47 µM and 6.12 µM; in test [4] it was 12.5 µM and 11.3 µM and 4.78 µM; in [5] it was 53.3 µM and 25 µM and 85.5 µM; in [6], 3.88 µM and 9.35 µM and 3.36 µM. Moreover, the TGI was 17.1 µM and 10.5 µM and 38 µM in test [7]; 28 µM and 25 µM and 17.2 µM in test [8]; 14.7 µM and 25 µM and 16.6 µM in test [9]; 5.52 µM and 7.49 µM and 3.68 µM in test [10].

For the origin of these results see PubChem BioAssay (NCI).
